Reference: ChEMBL document CHEMBL2440106, “Cloning, characterization, and inhibition studies of a β-carbonic anhydrase from Leishmania donovani chagasi, the protozoan parasite responsible for leishmaniasis” (J Med Chem, 2013)
Values after ≈ are worked out from the molar mass of the structure shown. Active and inactive are the calls of the source. The rule behind the calls is not given here.

Key:
Leishmania chagasi [1] = test: Antileishmanial activity against promastigote form of Leishmania chagasi assessed as appearance of autophagic vacuoles at 256 uM after 24 hrs by transmission electron microscopic analysis; type: functional, organism-based
Leishmania chagasi [2] = test: Antileishmanial activity against promastigote form of Leishmania chagasi assessed as marked swelling of vacuoles at 256 uM after 24 hrs by transmission electron microscopic analysis; type: functional, organism-based
Leishmania chagasi [3] = test: Antileishmanial activity against promastigote form of Leishmania chagasi assessed as appearance of many number of vacuoles in cytoplasm at 256 uM after 24 hrs by transmission electron microscopic analysis; type: functional, organism-based
Leishmania chagasi [4] = test: Antileishmanial activity against promastigote form of Leishmania chagasi assessed as accumulation of intracytoplasmic electron-dense granules at 256 uM after 24 hrs by transmission electron microscopic analysis; type: functional, organism-based
Leishmania amazonensis [5] = test: Antileishmanial activity against promastigote form of Leishmania amazonensis MHOM/BR/76/Ma-5 assessed as parasite growth inhibition after 120 hrs by resazurin dye-based assay; type: functional; conditions: MHOM/BR/76/Ma-5, 120 h
Leishmania chagasi [6] = test: Antileishmanial activity against promastigote form of Leishmania chagasi MHOM/BR/1974/PP75 assessed as parasite growth inhibition after 120 hrs by resazurin dye-based assay; type: functional; conditions: MHOM/BR/1974/PP75, 120 h
Leishmania amazonensis [7] = test: Antileishmanial activity against promastigote form of Leishmania amazonensis MHOM/BR/76/Ma-5 assessed as parasite growth inhibition at 128 uM after 120 hrs by resazurin dye-based assay relative to control; type: functional; conditions: MHOM/BR/76/Ma-5, 120 h, read-out: GI
Leishmania amazonensis [8] = test: Antileishmanial activity against promastigote form of Leishmania amazonensis MHOM/BR/76/Ma-5 assessed as parasite growth inhibition at 256 uM after 120 hrs by resazurin dye-based assay relative to control; type: functional; conditions: MHOM/BR/76/Ma-5, 120 h, read-out: GI
Leishmania chagasi [9] = test: Antileishmanial activity against promastigote form of Leishmania chagasi MHOM/BR/1974/PP75 assessed as parasite growth inhibition at 128 uM after 120 hrs by resazurin dye-based assay relative to control; type: functional; conditions: MHOM/BR/1974/PP75, 120 h, read-out: GI
Leishmania chagasi [10] = test: Antileishmanial activity against promastigote form of Leishmania chagasi MHOM/BR/1974/PP75 assessed as parasite growth inhibition at 256 uM after 120 hrs by resazurin dye-based assay relative to control; type: functional; conditions: MHOM/BR/1974/PP75, 120 h, read-out: GI

Row | SMILES | inhibition of growth at 256 µM (Leishmania amazonensis [8]) [%] | inhibition of growth at 256 µM (Leishmania chagasi [10]) [%] | also measured
1 | O=C(N/N=C\c1cccc(Br)c1)Nc1nnc(S)s1 | 97 | 100 | Activity (Leishmania chagasi [1]): Active; Activity (Leishmania chagasi [2]): Active; Activity (Leishmania chagasi [3]): Active; Activity (Leishmania chagasi [4]): Active; MIC (Leishmania amazonensis [5]): 256 µM (≈ 91.7 µg/mL); MIC (Leishmania chagasi [6]): 256 µM (≈ 91.7 µg/mL); inhibition of growth at 128 µM (Leishmania amazonensis [7]): 28%; inhibition of growth at 128 µM (Leishmania chagasi [9]): 30%
2 | C/C(=N/NC(=O)Nc1nnc(S)s1)c1ccc(Cl)cc1 | 7 | 0 | –
3 | O=C(N/N=C\c1ccc(F)cc1)Nc1nnc(S)s1 | 56 | 18 | –
4 | O=C(N/N=C1\C(=O)Nc2ccccc21)Nc1n[nH]c(=S)s1 | 0 | 0 | –
5 | O=C(N/N=C\c1ccccc1)Nc1nnc(S)s1 | 45.8 | 36.3 | –
6 | COc1cccc(/C=N\NC(=O)Nc2nnc(S)s2)c1 | 76.4 | 32.2 | –
7 | O=C(N/N=C\c1ccc(Cl)cc1)Nc1nnc(S)s1 | 62.3 | 51.5 | –
8 | C/C(CC(C)C)=N/NC(=O)Nc1nnc(S)s1 | 91.9 | 74.8 | –
9 | O=C(N/N=C1\C(=O)Nc2ccc(Br)cc21)Nc1n[nH]c(=S)s1 | 0 | 0 | –
